Measurements published in patent US20240270771A1, “Compound containing phosphate group, pharmaceutical composition containing same, preparation method therefor and use thereof” (SHANGHAI RAISING PHARMACEUTICAL CO., LTD., priority 2021, published 2024).
Each block holds one compound with its values, some of them ahead of it.

Assays:
APP/PSi 2×Tg mice = experiment: Water maze behavior test; format: in vivo; details: 200 mg/kg oral gavage once a day, 8 weeks; for The number of crossing the platform: test day 6, model group 0.9 ± 0.6; for Time in the target quadrant: test day 6, model group 12.8 ± 2.9, in s
Text: Rodents in water have a strong incentive to escape from the water environment, and can escape from the water environment in the fastest and most direct way. The process of learning to escape from the water environment reflects the learning ability of the animals. Spatial positioning according to the surrounding environment and purposefully swimming to a safe place in the water (such as a platform) can reflect the spatial learning and memory ability of the animals.
The test animals were APP/PSi 2×Tg mice (C57BL/6 wild-type mice as the blank control). Mice of 6-8 months old, weighing 20-40 g, were purchased from The Jackson laboratory.
APP/PSi mice are APP/PSi di-transgenic Alzheimer's disease (2×Tg-AD) model mice, and the appearance of deposition of Aβ is earlier than the pathological changes of tau protein for several months, which can more truly simulate the clinical process and pathological changes of Alzheimer's disease.
Preparation of 0.7% CMC-Na: 0.7 g CMC-Na was added with a proper amount of water, heated for dissolution, left for cooling to room temperature, diluted to 100 mL, and stored at 4° C.
Preparation of BTMP: 100 mg of BTMP was added to 10 mL of 0.7% CMC-Na to prepare a 10 mg/mL suspension for use.
Preparation of test compound and comparative compound 1: 100 mg of the compound to be tested was weighted and added to 10 mL of 0.7% CMC-Na to prepare a 10 mg/mL suspension for use.
The laboratory mice were randomly divided into groups (9 or 10 mice per group). Mice in each group were administrated at a dosage of 0.2 mL/10 g body weight by oral gavage once a day for eight weeks.
The mice in the blank control group, model group and test group were orally administrated for 8 consecutive weeks according to the above administration dosage/specification. The water maze training and test were started in the last week of administration. The water maze training and test lasted for six days, with a training period of five days and a testing period of one day. In addition, during the training and testing period of water maze (6 days in total), the indoor conditions such as lighting etc. were kept consistent, the room was kept quiet, and the interference from the environment and personnel was excluded.
2.1. Preparation before the test: a proper amount of water was put into the water maze pool with the water temperature being kept at 22±3° C. The platform was placed in a fixed position (target quadrant) and 1 cm below the water surface, and titanium dioxide was added until the water became white, so that the platform could not be seen clearly.
2.2. Training period (days 1 to 5): on each day, before the first quadrant training, each mouse was placed on the platform for 15 s (to increase the mice's sense of security on the platform), and then the mouse was put into the pool (with its head facing the pool wall) from the quadrant where the platform located, and the swimming time was set as 60 s. If the mouse found the platform within 60 s and stayed for 5 s, it was regarded as the platform being found successfully. If the mouse could not find the platform, then the time was recorded as 60 s. The mouse was guided to the platform and stayed for 20 s, the mouse was then taken out, and the quadrant training for this mouse was ended.
After the first quadrant training, the mouse was trained in the remaining three quadrants sequentially, where it is not necessary to place the mouse on the platform for 15 s before training. The training of each mouse in every two quadrants was conducted at an interval of 10-15 minute. In this way, the training was performed continuously for 5 days.
2.3. Testing period (day 6): 24 hours after the last training, the platform was removed, and the mouse was dropped at the position opposite to the quadrant where the platform previously located (i.e., the position furthest away from the platform). […]

[1] = Pharmacokinetic study, brain distribution test (TM in brain and whole blood); format: in vivo, SD rats; details: single gavage to rats, trapezoidal method, calculated after deducting the concentration at time zero
Procedure: The SD rats used in this test were purchased from Zhejiang Charles rive Laboratory Animal Co., Ltd. Both male and female rats of SPF grade weighting about 250 g were used.
Preparation of the test article: a proper amount of test article was weighed and ground as fine powder in a mortar. A certain amount of the vehicle was added to a proper container, and then the ground test article was added to the container under magnetic stirring. The mixture was stirred until the appearance is uniform.
The male SD rats were divided into three groups (16 rats in each group) (4 animals were sacrificed at 4 time points). […] The animals were sacrificed at 5 min, 1 h, 3 h, and 9 h after the administration. The brain was taken out immediately after sacrifice, rinsed with ice-cold water and rinsed. 50 mg of the brain tissue was weighed, added to 0.45 mL of 100 mM dipotassium hydrogen phosphate buffer (pH=5.0) and homogenized. Blood samples were taken simultaneously and anticoagulated with EDTA. After collection, blood samples were placed on ice. 150 μL of whole blood was taken and 150 μL of 5.2% perchloric acid was added to determine TM. Another 4 animals were gavage administered with normal saline for the determination of endogenous TM concentration. All samples were frozen and stored in a −80° C. refrigerator.
The concentrations of TM and TDP in the samples were determined by HPLC-FLD.
The non-compartment model of the DAS software was used to calculate the pharmacokinetic parameters of TM and TDP in blood of rats after administration. The concentration of TM in the brain tissue after the drug administration in rats was measured, and the mean value and standard deviation were calculated. The area under the drug-time curve AUC was calculated using the trapezoidal method.

Aβ40 = Aβ40 content in culture supernatant of HEK293APP/sw overexpressing cells (ELISA kit); format: cell-based; details: compound 400 μM, 24 hours, adjusted by total protein concentration, blank control 127.81
Procedure: (§1) BCA Protein Assay Kit was purchased from Beyotime, Aβ40 and Aβ42 detection kits were purchased from Wako, and cell culture related reagents were purchased from Gibco.
(§2) HEK293APP/sw overexpressing cells were cultured in DMEM medium containing 10% FBS, 100 μg/mL G418 (Geneticin) and 1×Penicillin-Streptomycin in 48-well plates. A 4 mM compound stock solution (prepared by dissolving the compound in DMEM culture medium) was filtered through a 0.22 μm sterile filter and stored at −20° C. for subsequent use. At 70% cell density, 40 μL of the compound test solution was added to each well to reach a final concentration of 400 μM, and the plate was incubated for 24 hours.
(§3) The supernatant of the culture medium was collected. The BCA reagent was added to a part of the supernatant, after incubating at room temperature for 30 min, the absorbance value (i.e., OD value) of each well was determined by a microplate reader at 570 nm. The total protein concentration was calculated according to a protein standard curve. Meanwhile, the other part of the supernatant (100 μL) was added to a coated 96-well plate and incubated overnight at 4° C., after the solution was removed and the reagents were washed, HRP (horseradish peroxidase)-labeled antibody was added and incubated at 4° C. for 2 hours. After the reagents were removed and washed, a TMB chromogenic solution was added, the plate was incubated at room temperature for 30 min, and then a stop solution was added to stop the reaction. The absorbance value (i.e., OD value) of each well was measured by a microplate reader at 450 nm. The concentrations of Aβ40 and Aβ42 were calculated according to the standard curves of Aβ40 and Aβ42, respectively. In the end, the concentrations of Aβ40 and Aβ42 were adjusted by the total protein concentration, so as to obtain the final concentration.

Aβ42 = Aβ42 content in culture supernatant of HEK293APP/sw overexpressing cells (ELISA kit); format: cell-based; details: compound 400 μM, 24 hours, adjusted by total protein concentration, blank control 11.08
Procedure: as §1, §2, §3

[2] = test day 6, model group 45.0 ± 8.8, 200 mg/kg

- AUC of TM in the brain [1]: 739.9 ng·h/g
Structure (SMILES): C/C(=C(\CCOP(=O)(O)O)SC(=O)c1ccccc1)N(C=O)Cc1cnc(C)nc1N [BTMP, benfotiamine, reference compound]
- The number of crossing the platform (APP/PSi 2×Tg mice): 2.1 ± 0.6
- Time in the target quadrant (APP/PSi 2×Tg mice): 18.0 ± 3.5
- Latency period (APP/PSi 2×Tg mice; [2]): 27.3 ± 1.6 s

Structure (SMILES): C/C(=C(\CCOP(=O)(O)O)SC(=O)C(C)C)N(C=O)Cc1cnc(C)nc1N [Comparative compound 1, reference compound]
- The number of crossing the platform (APP/PSi 2×Tg mice): 2.1 ± 0.6
- Time in the target quadrant (APP/PSi 2×Tg mice): 18.1 ± 2.8
- Latency period (APP/PSi 2×Tg mice; [2]): 27.0 ± 1.3 s

- AUC of TM in the brain [1]: 555.9 ng·h/g
Structure (SMILES): CCCCC(CC)C(=O)S/C(CCOP(=O)(O)O)=C(/C)N(C=O)Cc1cnc(C)nc1N (stereo not drawn) [Comparative compound 2, reference compound]

Structure (SMILES): C/C(=C(\CCOP(=O)(O)O)SC(=O)OCCc1ccccc1)N(C=O)Cc1cnc(C)nc1N [Compound 5, (Z)—S-(2-(N-((4-amino-2-methylpyrimidin-5-yl)methyl)formamido)-5-(phosphonooxy)pent-2-en-3-yl) O-phenethyl carbonothioate]
- The content of Aβ40 (Aβ40): 48.94 pmol/L
- The content of Aβ42 (Aβ42): 4.92 pmol/L
- The number of crossing the platform (APP/PSi 2×Tg mice): 2.2 ± 0.7
- Time in the target quadrant (APP/PSi 2×Tg mice): 17.7 ± 2.6
- Latency period (APP/PSi 2×Tg mice; test day 6, model group 45.0 ± 8.8): 25.0 ± 2.2 s

Structure (SMILES): C/C(=C(\CCOP(=O)(O)O)SC(=O)c1ccc(Cl)s1)N(C=O)Cc1cnc(C)nc1N [Compound 7, (Z)—S-(2-(N-((4-amino-2-methylpyrimidin-5-yl)methyl)formamido)-5-(phosphonooxy)pent-2-en-3-yl) 5-chlorothiophene-2-carbothioate]
- The content of Aβ40 (Aβ40): 35.93 pmol/L
- The content of Aβ42 (Aβ42): 5.03 pmol/L

Structure (SMILES): COc1ccc2oc(C(=O)S/C(CCOP(=O)(O)O)=C(/C)N(C=O)Cc3cnc(C)nc3N)cc2c1 [Compound 8, (Z)—S-(2-(N-((4-amino-2-methylpyrimidin-5-yl)methyl)formamido)-5-(phosphonooxy)pent-2-en-3-yl) 5-methoxybenzofuran-2-carbothioate]
- The content of Aβ40 (Aβ40): 60.96 pmol/L
- The content of Aβ42 (Aβ42): 2.31 pmol/L

Structure (SMILES): C/C(=C(\CCOP(=O)(O)O)SC(=O)c1cc2ccccc2o1)N(C=O)Cc1cnc(C)nc1N [Compound 13, (Z)—S-(2-(N-((4-amino-2-methylpyrimidin-5-yl)methyl)formamido)-5-(phosphonooxy)pent-2-en-3-yl) benzofuran-2-carbothioate]
- The content of Aβ40 (Aβ40): 43.76 pmol/L
- The content of Aβ42 (Aβ42): 7.21 pmol/L

Structure (SMILES): C/C(=C(\CCOP(=O)(O)O)SC(=O)c1ccoc1)N(C=O)Cc1cnc(C)nc1N [Compound 15, (Z)—S-(2-(N-((4-amino-2-methylpyrimidin-5-yl)methyl)formamido)-5-(phosphonooxy)pent-2-en-3-yl) furan-3-carbothioate]
- The content of Aβ40 (Aβ40): 37.88 pmol/L
- The content of Aβ42 (Aβ42): 10.52 pmol/L
